Assay results taken from US8461160B2, “Dihydropyrimidinones” (Hoffmann-La Roche, Inc., priority 2009, dated 2013).

Biological target: T1, BACE2 (Homo sapiens, UniProt Q9Y5Z0)
T1 construct: BACE2 enzyme ectodomain (derived from plasmid “pET17b-T7-hu proBACE2”) was prepared as described in Ostermann et al; T7 tag (N); made in house
T1 sequence (Q9Y5Z0 21-473 limits assumed): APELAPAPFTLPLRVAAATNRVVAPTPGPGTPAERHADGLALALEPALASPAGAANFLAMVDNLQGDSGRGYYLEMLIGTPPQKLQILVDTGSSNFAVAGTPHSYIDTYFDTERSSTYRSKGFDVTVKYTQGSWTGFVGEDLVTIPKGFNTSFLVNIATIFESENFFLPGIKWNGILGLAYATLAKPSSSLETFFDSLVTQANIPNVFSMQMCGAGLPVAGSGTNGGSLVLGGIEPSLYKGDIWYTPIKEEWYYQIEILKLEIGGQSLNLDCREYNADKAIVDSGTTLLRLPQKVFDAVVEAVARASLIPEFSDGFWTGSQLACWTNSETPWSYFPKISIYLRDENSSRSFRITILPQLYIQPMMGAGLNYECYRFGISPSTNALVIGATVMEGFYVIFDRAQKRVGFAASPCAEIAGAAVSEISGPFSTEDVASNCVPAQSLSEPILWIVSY
Assay: Fluorescent-peptide cleavage assay for BACE2 inhibition
Assay type: biochemical
Details: BACE2 enzyme ectodomain, fluorescent peptide WS EVNLD AEFRC-MR121, assay buffer pH 4.5, room temperature
In short: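 Pro-enzyme BACE2 was activated at 80 nM for 1 h at room temperature in 100 mM Na-acetate, 20 mM EDTA, 0.05% BSA, pH 4.5, then preincubated 10 min with compound. IC50 from sigmoidal dose-response fit.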

| Compound | IC50 [nM] |
| --- | --- |
| CCC[C@@]1(c2cccc(NC(=O)c3ccc(Cl)cn3)c2)CC(=O)N(C)C(N)=N1 [Example 87, 5-Chloro-pyridine-2-carboxylic acid [3-((S)-2-amino-1-methyl-6-oxo-4-propyl-1,4,5,6-tetrahydro-pyrimidin-4-yl)-phenyl]-amide] | 170 |
| CCC[C@@]1(c2cccc(NC(=O)c3ccccn3)c2)CC(=O)N(C)C(N)=N1 [Example 88, Pyridine-2-carboxylic acid [3-((S)-2-amino-1-methyl-6-oxo-4-propyl-1,4,5,6-tetrahydro-pyrimidin-4-yl)-phenyl]-amide] | 1780 |
| CCC[C@@]1(c2cccc(NC(=O)c3ccn(C)n3)c2)CC(=O)N(C)C(N)=N1 [Example 89, 1-Methyl-1H-pyrazole-3-carboxylic acid [3-((S)-2-amino-1-methyl-6-oxo-4-propyl-1,4,5,6-tetrahydro-pyrimidin-4-yl)-phenyl]-amide] | 4750 |
| CCC[C@@]1(c2cccc(NC(=O)c3coc(C)n3)c2)CC(=O)N(C)C(N)=N1 [Example 90, 2-Methyl-oxazole-4-carboxylic acid [3-((S)-2-amino-1-methyl-6-oxo-4-propyl-1,4,5,6-tetrahydro-pyrimidin-4-yl)-phenyl]-amide] | 1110 |
| C[C@H]1C(=O)N(C)C(N)=N[C@]1(C)c1cccc(NC(=O)c2ccc(Cl)cn2)c1 [Example 91, 5-Chloro-pyridine-2-carboxylic acid [3-((4S,5R)-2-amino-1,4,5-trimethyl-6-oxo-1,4,5,6-tetrahydro-pyrimidin-4-yl)-phenyl]amide] | 17 |
| CC[C@H]1C(=O)N(C)C(N)=N[C@]1(C)c1cccc(NC(=O)c2ccc(Cl)cn2)c1 [Example 92, 5-Chloro-pyridine-2-carboxylic acid [3-((4S,5R)-2-amino-5-ethyl-1,4-dimethyl-6-oxo-1,4,5,6-tetrahydro-pyrimidin-4-yl)-phenyl]-amide] | 24 |
| COc1cccnc1C(=O)Nc1cccc([C@@]2(C)N=C(N)N(C)C(=O)C2(C)C)c1 [Example 93, 3-Methoxy-pyridine-2-carboxylic acid [3-((R)-2-amino-1,4,5,5-tetramethyl-6-oxo-1,4,5,6-tetrahydro-pyrimidin-4-yl)-phenyl]amide] | 158 |
| Cc1cc(Cl)cnc1C(=O)Nc1cccc([C@@]2(C)N=C(N)N(C)C(=O)C2(C)C)c1 [Example 95, 5-Chloro-3-methyl-pyridine-2-carboxylic acid [3-((R)-2-amino-1,4,5,5-tetramethyl-6-oxo-1,4,5,6-tetrahydro-pyrimidin-4-yl)-phenyl]amide] | 19 |
| CN1C(=O)C(C)(C)[C@@](C)(c2cccc(NC(=O)c3nccc4ccsc34)c2)N=C1N [Example 96, Thieno[2,3-c]pyridine-7-carboxylic acid [3-((R)-2-amino-1,4,5,5-tetramethyl-6-oxo-1,4,5,6-tetrahydro-pyrimidin-4-yl)-phenyl]amide] | 370 |
| CN1C(=O)C(C)(C)[C@@](C)(c2cccc(NC(=O)c3ncccc3-c3ccccc3Cl)c2)N=C1N [Example 97, 3-(2-Chloro-phenyl)-pyridine-2-carboxylic acid [3-((R)-2-amino-1,4,5,5-tetramethyl-6-oxo-1,4,5,6-tetrahydro-pyrimidin-4-yl)-phenyl]amide] | 180 |

Continued, values first:

| IC50 [nM] | Compound |
| --- | --- |
| 20 | CN1C(=O)C(C)(C)[C@@](C)(c2cccc(NC(=O)c3ccc(Cl)cn3)c2)N=C1N [Example 94, 5-Chloro-pyridine-2-carboxylic acid [3-((R)-2-amino-1,4,5,5-tetramethyl-6-oxo-1,4,5,6-tetrahydro-pyrimidin-4-yl)-phenyl]amide] |
| 35 | CN1C(=O)C(C)(C)[C@@](C)(c2cc(NC(=O)c3ccn(C)n3)ccc2F)N=C1N [Example 98, 1-Methyl-1H-pyrazole-3-carboxylic acid [3-((S)-2-amino-1,4,5,5-tetramethyl-6-oxo-1,4,5,6-tetrahydro-pyrimidin-4-yl)-4-fluoro-phenyl]amide] |
| 13 | Cc1cc(Cl)cnc1C(=O)Nc1ccc(F)c([C@@]2(C)N=C(N)N(C)C(=O)C2(C)C)c1 [Example 99, 5-Chloro-3-methyl-pyridine-2-carboxylic acid [3-((S)-2-amino-1,4,5,5-tetramethyl-6-oxo-1,4,5,6-tetrahydro-pyrimidin-4-yl)-4-fluoro-phenyl]amide] |
| 43 | CN1C(=O)C(C)(C)[C@@](C)(c2cc(NC(=O)c3ccccn3)ccc2F)N=C1N [Example 100, Pyridine-2-carboxylic acid [3-((S)-2-amino-1,4,5,5-tetramethyl-6-oxo-1,4,5,6-tetrahydro-pyrimidin-4-yl)-4-fluoro-phenyl]amide] |
| 21 | Cc1nc(C(=O)Nc2ccc(F)c([C@@]3(C)N=C(N)N(C)C(=O)C3(C)C)c2)co1 [Example 101, 2-Methyl-oxazole-4-carboxylic acid [3-((S)-2-amino-1,4,5,5-tetramethyl-6-oxo-1,4,5,6-tetrahydro-pyrimidin-4-yl)-4-fluoro-phenyl]amide] |
| 52 | Cc1ccc(C(=O)Nc2ccc(F)c([C@@]3(C)N=C(N)N(C)C(=O)C3(C)C)c2)s1 [Example 102, 5-Methyl-thiophene-2-carboxylic acid [3-((S)-2-amino-1,4,5,5-tetramethyl-6-oxo-1,4,5,6-tetrahydro-pyrimidin-4-yl)-4-fluoro-phenyl]amide] |
| 25 | CN1C(=O)C(C)(C)[C@@](C)(c2cc(NC(=O)c3ccc(OC(F)F)cn3)ccc2F)N=C1N [Example 103, 5-Difluoromethoxy-pyridine-2-carboxylic acid [3-((S)-2-amino-1,4,5,5-tetramethyl-6-oxo-1,4,5,6-tetrahydro-pyrimidin-4-yl)-4-fluoro-phenyl]amide] |
| 150 | COc1cccnc1C(=O)Nc1ccc(F)c([C@@]2(C)N=C(N)N(C)C(=O)C2(C)C)c1 [Example 104, 3-Methoxy-pyridine-2-carboxylic acid [3-((S)-2-amino-1,4,5,5-tetramethyl-6-oxo-1,4,5,6-tetrahydro-pyrimidin-4-yl)-4-fluoro-phenyl]amide] |
| 49 | Cc1cccnc1C(=O)Nc1ccc(F)c([C@@]2(C)N=C(N)N(C)C(=O)C2(C)C)c1 [Example 105, 3-Methyl-pyridine-2-carboxylic acid [3-((S)-2-amino-1,4,5,5-tetramethyl-6-oxo-1,4,5,6-tetrahydro-pyrimidin-4-yl)-4-fluoro-phenyl]amide] |
| 28 | CN1C(=O)C(C)(C)[C@@](C)(c2cc(NC(=O)c3ncc(Cl)cn3)ccc2F)N=C1N [Example 106, 5-Chloro-pyrimidine-2-carboxylic acid [3-((S)-2-amino-1,4,5,5-tetramethyl-6-oxo-1,4,5,6-tetrahydro-pyrimidin-4-yl)-4-fluoro-phenyl]amide] |
| 27 | CN1C(=O)C(C)(C)[C@@](C)(c2cc(NC(=O)c3cnc(Cl)cn3)ccc2F)N=C1N [Example 107, 5-Chloro-pyrazine-2-carboxylic acid [3-((S)-2-amino-1,4,5,5-tetramethyl-6-oxo-1,4,5,6-tetrahydro-pyrimidin-4-yl)-4-fluoro-phenyl]amide] |
| 28 | CN1C(=O)C(C)(C)[C@@](C)(c2cc(NC(=O)c3ncccc3F)ccc2F)N=C1N [Example 108, 3-Fluoro-pyridine-2-carboxylic acid [3-((S)-2-amino-1,4,5,5-tetramethyl-6-oxo-1,4,5,6-tetrahydro-pyrimidin-4-yl)-4-fluoro-phenyl]amide] |
